{"source": "patent US20080200442A1", "about": "“Compositions and Methods for Treating, Reducing, Ameliorating, or Preventing Infections of the Ear or Upper Respiratory Tract” (priority 2007, published 2008)", "data": [{"system": "Clostridium perfringens (KZ 210)", "test": "microbe, parasite or virus in culture", "format": "cell-based", "conditions": "not given", "units": {"MIC90": "µg/mL"}, "values": [{"compound": "CC1COc2c(N3CCN(C)CC3)c(F)cc3c(=O)c(C(=O)O)cn1c23", "note": "(stereo not shown) [Ofloxacin]", "MIC90": 0.78}]}, {"system": "Peptostreptococcus micros (GIFU 7824)", "test": "In vitro anti-bacterial activity (MIC90), anaerobic reference bacteria", "format": "cell-based", "conditions": "Parvimonas micra", "units": {"MIC90": "µg/mL"}, "values": [{"compound": "CC1COc2c(N3CCN(C)CC3)c(F)cc3c(=O)c(C(=O)O)cn1c23", "note": "(stereo not shown) [Ofloxacin]", "MIC90": 0.78}]}, {"system": "Peptostreptococcus magnum (GAI 0664)", "test": "In vitro anti-bacterial activity (MIC90), anaerobic reference bacteria", "format": "cell-based", "conditions": "not given", "units": {"MIC90": "µg/mL"}, "values": [{"compound": "CC1COc2c(N3CCN(C)CC3)c(F)cc3c(=O)c(C(=O)O)cn1c23", "note": "(stereo not shown) [Ofloxacin]", "MIC90": 0.39}]}, {"system": "Propionibacterium acnes (GAI 5419)", "test": "In vitro anti-bacterial activity (MIC90), anaerobic reference bacteria", "format": "cell-based", "conditions": "Cutibacterium acnes", "units": {"MIC90": "µg/mL"}, "values": [{"compound": "CC1COc2c(N3CCN(C)CC3)c(F)cc3c(=O)c(C(=O)O)cn1c23", "note": "(stereo not shown) [Ofloxacin]", "MIC90": 0.78}]}, {"system": "Propionibacterium acnes (ATCC 6919)", "test": "In vitro anti-bacterial activity (MIC90), anaerobic reference bacteria", "format": "cell-based", "conditions": "Cutibacterium acnes, ATCC6919", "units": {"MIC90": "µg/mL"}, "values": [{"compound": "CC1COc2c(N3CCN(C)CC3)c(F)cc3c(=O)c(C(=O)O)cn1c23", "note": "(stereo not shown) [Ofloxacin]", "MIC90": 0.78}]}, {"system": "Propionibacterium acnes (ATCC 11828)", "test": "In vitro anti-bacterial activity (MIC90), anaerobic reference bacteria", "format": "cell-based", "conditions": "Cutibacterium acnes, ATCC11828", "units": {"MIC90": "µg/mL"}, "values": [{"compound": "CC1COc2c(N3CCN(C)CC3)c(F)cc3c(=O)c(C(=O)O)cn1c23", "note": "(stereo not shown) [Ofloxacin]", "MIC90": 1.56}]}, {"system": "Bacteroides fragillis (GAI 0675)", "test": "In vitro anti-bacterial activity (MIC90), anaerobic reference bacteria", "format": "cell-based", "conditions": "not given", "units": {"MIC90": "µg/mL"}, "values": [{"compound": "CC1COc2c(N3CCN(C)CC3)c(F)cc3c(=O)c(C(=O)O)cn1c23", "note": "(stereo not shown) [Ofloxacin]", "MIC90": 1.56}]}, {"system": "Bacteroides thetaiotaomicron (GAI 0659)", "test": "In vitro anti-bacterial activity (MIC90), anaerobic reference bacteria", "format": "cell-based", "conditions": "Bacteroides thetaiotaomicron", "units": {"MIC90": "µg/mL"}, "values": [{"compound": "CC1COc2c(N3CCN(C)CC3)c(F)cc3c(=O)c(C(=O)O)cn1c23", "note": "(stereo not shown) [Ofloxacin]", "MIC90": 3.13}]}, {"system": "Bacteroides vulgatus (GAI 0673)", "test": "In vitro anti-bacterial activity (MIC90), anaerobic reference bacteria", "format": "cell-based", "conditions": "Phocaeicola vulgatus", "units": {"MIC90": "µg/mL"}, "values": [{"compound": "CC1COc2c(N3CCN(C)CC3)c(F)cc3c(=O)c(C(=O)O)cn1c23", "note": "(stereo not shown) [Ofloxacin]", "MIC90": 3.13}]}, {"system": "Veillonella parvula (GAI 5602)", "test": "In vitro anti-bacterial activity (MIC90), anaerobic reference bacteria", "format": "cell-based", "conditions": "not given", "units": {"MIC90": "µg/mL"}, "values": [{"compound": "CC1COc2c(N3CCN(C)CC3)c(F)cc3c(=O)c(C(=O)O)cn1c23", "note": "(stereo not shown) [Ofloxacin]", "MIC90": 0.39}]}, {"system": "Moraxella species", "test": "In vitro anti-bacterial activity (MIC90), ophthalmologic clinical bacteria isolates", "format": "cell-based", "conditions": "Gram-negative", "units": {"MIC90": "µg/mL"}, "values": [{"compound": "CC1COc2c(N3CCN(C)CC3)c(F)cc3c(=O)c(C(=O)O)cn1c23", "note": "(stereo not shown) [Ofloxacin]", "MIC90": 0.13}]}, {"system": "Pseudomonas aeruginosa", "test": "In vitro anti-bacterial activity (MIC90), ophthalmologic clinical bacteria isolates", "format": "cell-based", "conditions": "Gram-negative", "units": {"MIC90": "µg/mL"}, "values": [{"compound": "CC1COc2c(N3CCN(C)CC3)c(F)cc3c(=O)c(C(=O)O)cn1c23", "note": "(stereo not shown) [Ofloxacin]", "MIC90": 4}]}, {"system": "Haemophilus influenzae", "test": "In vitro anti-bacterial activity (MIC90), ophthalmologic clinical bacteria isolates", "format": "cell-based", "conditions": "Gram-negative", "units": {"MIC90": "µg/mL"}, "values": [{"compound": "CC1COc2c(N3CCN(C)CC3)c(F)cc3c(=O)c(C(=O)O)cn1c23", "note": "(stereo not shown) [Ofloxacin]", "MIC90": "≤ 0.06"}]}, {"system": "Staphylococcus aureus", "test": "In vitro anti-bacterial activity (MIC90), ophthalmologic clinical bacteria isolates", "format": "cell-based", "conditions": "Gram-positive", "units": {"MIC90": "µg/mL"}, "values": [{"compound": "CC1COc2c(N3CCN(C)CC3)c(F)cc3c(=O)c(C(=O)O)cn1c23", "note": "(stereo not shown) [Ofloxacin]", "MIC90": 32}]}, {"system": "Coagulase-negative Staphylococcus", "test": "In vitro anti-bacterial activity (MIC90), ophthalmologic clinical bacteria isolates", "format": "cell-based", "conditions": "Gram-positive", "units": {"MIC90": "µg/mL"}, "values": [{"compound": "CC1COc2c(N3CCN(C)CC3)c(F)cc3c(=O)c(C(=O)O)cn1c23", "note": "(stereo not shown) [Ofloxacin]", "MIC90": 8}]}, {"system": "Streptococcus pneumoniae", "test": "In vitro anti-bacterial activity (MIC90), ophthalmologic clinical bacteria isolates", "format": "cell-based", "conditions": "Gram-positive", "units": {"MIC90": "µg/mL"}, "values": [{"compound": "CC1COc2c(N3CCN(C)CC3)c(F)cc3c(=O)c(C(=O)O)cn1c23", "note": "(stereo not shown) [Ofloxacin]", "MIC90": 2}]}, {"system": "Corynebacterium species", "test": "In vitro anti-bacterial activity (MIC90), ophthalmologic clinical bacteria isolates", "format": "cell-based", "conditions": "Gram-positive", "units": {"MIC90": "µg/mL"}, "values": [{"compound": "CC1COc2c(N3CCN(C)CC3)c(F)cc3c(=O)c(C(=O)O)cn1c23", "note": "(stereo not shown) [Ofloxacin]", "MIC90": 32}]}, {"system": "Propionibacterium acnes", "test": "In vitro anti-bacterial activity (MIC90), ophthalmologic clinical bacteria isolates", "format": "cell-based", "conditions": "Cutibacterium acnes, Gram-positive", "units": {"MIC90": "µg/mL"}, "values": [{"compound": "CC1COc2c(N3CCN(C)CC3)c(F)cc3c(=O)c(C(=O)O)cn1c23", "note": "(stereo not shown) [Ofloxacin]", "MIC90": 1}]}, {"system": "Ofloxacin-resistant Staphylococcus aureus", "test": "In vitro anti-bacterial activity (MIC90), ophthalmologic clinical bacteria isolates", "format": "cell-based", "conditions": "not given", "units": {"MIC90": "µg/mL"}, "values": [{"compound": "CC1COc2c(N3CCN(C)CC3)c(F)cc3c(=O)c(C(=O)O)cn1c23", "note": "(stereo not shown) [Ofloxacin]", "MIC90": "> 128"}]}, {"system": "Gentamycin-resistant Staphylococcus aureus", "test": "In vitro anti-bacterial activity (MIC90), ophthalmologic clinical bacteria isolates", "format": "cell-based", "conditions": "not given", "units": {"MIC90": "µg/mL"}, "values": [{"compound": "CC1COc2c(N3CCN(C)CC3)c(F)cc3c(=O)c(C(=O)O)cn1c23", "note": "(stereo not shown) [Ofloxacin]", "MIC90": 128}]}, {"system": "Gentamycin-resistant Pseudomonas aeruginosa", "test": "In vitro anti-bacterial activity (MIC90), ophthalmologic clinical bacteria isolates", "format": "cell-based", "conditions": "not given", "units": {"MIC90": "µg/mL"}, "values": [{"compound": "CC1COc2c(N3CCN(C)CC3)c(F)cc3c(=O)c(C(=O)O)cn1c23", "note": "(stereo not shown) [Ofloxacin]", "MIC90": 64}]}, {"system": "Penicillin-resistant Streptococcus pneumoniae", "test": "In vitro anti-bacterial activity (MIC90), ophthalmologic clinical bacteria isolates", "format": "cell-based", "conditions": "not given", "units": {"MIC90": "µg/mL"}, "values": [{"compound": "CC1COc2c(N3CCN(C)CC3)c(F)cc3c(=O)c(C(=O)O)cn1c23", "note": "(stereo not shown) [Ofloxacin]", "MIC90": 2}]}]}
